Data on nine compounds can be found in ChEMBL document CHEMBL1158227, “Effect of Polygonum hydropiper sulfated flavonoids on lens aldose reductase and related enzymes” (J Nat Prod, 1996).

Assay [1] deals with Aldo-keto reductase family 1 member B1 (Sus scrofa, UniProt P80276). In words: Inhibition of pig lens aldose reductase by spectrophotometry.
The nature of assay [2]: Inhibition of pig kidney aldehyde reductase by spectrophotometry. Also on record: species or system Sus scrofa.
The nature of assay [3]: Inhibition of bovine liver NADH oxidase. Also on record: species or system Bos taurus.
Assay [4] has as its target Aldo-keto reductase family 1 member B1 (Sus scrofa) (UniProt P80276). The assay is described as follows: Inhibition of pig lens aldose reductase at 1.8 uM by Lineweaver-Burke plot.
Assay [5] shares this target. In words: Inhibition of pig lens aldose reductase at 0.54 uM by Lineweaver-Burke plot.

The structures appear in SMILES notation. Active and inactive are the calls of the source. No cut-off for these calls is given here.

As for `COc1cc(-c2oc3cc(O)cc(O)c3c(=O)c2OS(=O)(=O)O)ccc1O` [PERSICARIN], the IC50 in assay [1] was 69 µM; in assay [2], over 69 µM; in assay [3] it was over 69 µM.

`O=c1c(O)c(-c2ccc(O)c(O)c2)oc2cc(O)cc(O)c12` [QUERCETIN]: the IC50 in assay [1] is 50.1 µM; in assay [2], over 91 µM; in assay [3], 65.3 µM.

Take `COc1ccc(-c2oc3cc(OS(=O)(=O)O)cc(O)c3c(=O)c2O[C@@H]2O[C@H](CO)[C@@H](O)[C@H](O)[C@H]2O)cc1O`: the IC50 in assay [1] is 5 µM; in assay [2], over 50 µM; in assay [3] it was over 50 µM.

For the compound `O=c1c(O[C@@H]2O[C@H](CO)[C@@H](O)[C@H](O)[C@H]2O)c(-c2ccc(O)c(O)c2)oc2cc(O)cc(O)c12` [ISOQUERCETIN], the IC50 is 16 µM in assay [1], over 64 µM in assay [2] and over 64 µM in assay [3].

For the compound `COc1cc(O)c2c(=O)c(OS(=O)(=O)O)c(-c3ccc(O)c(OC)c3)oc2c1`, the IC50 in assay [1] was 30.1 µM; in assay [2] it was 43.5 µM; in assay [3], over 67 µM.

With `COc1cc(-c2oc3cc(O)cc(O)c3c(=O)c2O)ccc1O` [ISORHAMNETIN], the IC50 in assay [1] was over 95 µM; in assay [2], over 95 µM; in assay [3], 88.6 µM.

As for `COc1cc(O)c2c(=O)c(O)c(-c3ccc(O)c(OC)c3)oc2c1` [RHAMNAZIN], the IC50 in assay [1], in assay [2] and in assay [3] was over 91 µM each time.

Turning to `COc1cc(-c2oc3cc(OS(=O)(=O)O)cc(O)c3c(=O)c2OS(=O)(=O)O)ccc1O`, the IC50 is 1.8 µM in assay [1], 49.5 µM in assay [2] and over 54 µM in assay [3]. Also, the outcome in assay [4] and in assay [5] was Active.

Consider `O=c1c(OS(=O)(=O)O)c(-c2ccc(O)c(O)c2)oc2cc(O)cc(O)c12`, for which the IC50 in assay [1] is 50.9 µM; in assay [2], 55.6 µM; in assay [3] it was over 71 µM.

Broadly, the IC50 is the concentration needed to halve the response being measured. A higher IC50 goes with weaker potency.
